According to patent publication US11084824B2, “Pyrazolopyrimidine derivatives, preparation method thereof, and pharmaceutical composition for use in preventing or treating cancer, autoimmune disease and brain disease containing the same as an active ingredient” (Korea Research Institute of Chemical Technology, priority 2017, dated 2021):

Tests used:
[1] = tested on: TMD8 cells; experiment: TMD8 cell growth inhibition (WST-1, 72 hours); assay type: cell-based; details: Homo sapiens, TMD8 ABC type DLBCL cell line, WST-1, absorbance 450 nm
Procedure: TDM-8 cells, the ABC (activated B-cell) type DLBCL (diffuse large B cell lymphoma) cell line sensitive to BTK signaling, were seeded in a 96-well plate at 30% confluency. Then, the compounds of the invention were treated thereto at different concentrations. 72 hours later, WST-1 reagent was added thereto. One hour later, absorbance was measured at 450 nm by using a spectramax spectrophotometer.

[2] = molecular target: Bruton's tyrosine kinase (BTK) (Homo sapiens (Human), UniProt Q06187); experiment: BTK enzyme inhibition assay (Cisbio HTRF kit); assay type: biochemical; details: 30 minutes reaction, fluorescence 665 nm/620 nm
Chain of Bruton's tyrosine kinase (BTK) (Q06187 whole entry): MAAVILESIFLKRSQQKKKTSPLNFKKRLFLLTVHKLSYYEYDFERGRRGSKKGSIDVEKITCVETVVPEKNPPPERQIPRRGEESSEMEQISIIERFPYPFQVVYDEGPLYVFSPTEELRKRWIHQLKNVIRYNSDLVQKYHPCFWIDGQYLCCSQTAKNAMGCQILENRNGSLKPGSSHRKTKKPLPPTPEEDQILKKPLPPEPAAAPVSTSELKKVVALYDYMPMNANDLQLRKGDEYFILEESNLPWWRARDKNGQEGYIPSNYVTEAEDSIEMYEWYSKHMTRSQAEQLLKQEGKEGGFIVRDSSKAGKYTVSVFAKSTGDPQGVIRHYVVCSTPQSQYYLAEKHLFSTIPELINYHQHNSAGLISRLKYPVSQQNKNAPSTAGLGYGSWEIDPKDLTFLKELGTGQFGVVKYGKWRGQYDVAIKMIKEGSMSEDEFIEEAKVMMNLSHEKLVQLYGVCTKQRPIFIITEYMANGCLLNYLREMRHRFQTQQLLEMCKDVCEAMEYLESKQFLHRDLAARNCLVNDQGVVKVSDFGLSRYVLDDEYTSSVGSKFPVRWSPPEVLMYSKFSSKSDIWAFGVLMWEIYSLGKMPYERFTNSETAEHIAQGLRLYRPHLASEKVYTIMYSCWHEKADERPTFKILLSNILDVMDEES
Procedure: BTK enzyme evaluation with each compound of examples of the invention was performed by using BTK enzyme inhibition diagnosis kit (Cisbio, Codolet, France). […] Then, EDTA (ethylenediaminetetraacetic acid) was added thereto in order to terminate the reaction. At this time, the EDTA solution contained curopium-containing antibody (antiphosphoresidue antibody) and straptavidin-XL665 (SA-XL665, Cisbio). After incubation for 1 hour, fluorescence was measured. The emission values of 665 nm and 620 nm excited at 337 nm were measured with Envision reader. IC50 values were determined using GraphPad prism (version 5). Herein, the curve indicates a nonlinear regression model, which was determined by logarithmic functions and reaction values.

[3] = tested on: human peripheral blood mononuclear cells (human PBMC); experiment: TNFa inhibition in human PBMC monocytes (ELISA); assay type: cell-based; details: TNFa concentration in culture medium by ELISA, HSA/anti-HSA antibody coated plate, overnight culture, read-out: hPBMC IC50
Procedure: 20 ug/ml of human serum albumin (HAS) solution was prepared and distributed in a 96-well plate (200 μl/well). Reaction was induced at 4° C. for overnight and then 10% FBS solution was treated thereto (200 μl/well), followed by elimination. Lastly, 10 ug/ml of anti-HSA antibody was treated thereto (200 μl/well) for 1 hour, followed by elimination. An appropriate number of monocytes of human peripheral blood mononuclear cells (human PBMC) were distributed in the prepared 96-well plate. The target compounds were treated thereto at different concentration via serial dilution method, followed by culture for overnight. IC50 values of the compounds were determined by confirming the TNFa inhibition activity of the compounds between the maximum concentration (positive control) and the minimum concentration (negative control) of TNFa, and the results are shown in Table 8.

**Q.** With `CC(=O)N1CCc2ccc(Nc3ncc4c(Nc5c(C)cccc5C)nn(C)c4n3)cc2C1` [Example 1, 1-(7-(3-(2,6-dimethylphenylamino)-1-methyl-1H-pyrazolo[3,4-d]pyrimidine-6-ylamino)-3,4-dihydroisoquinoline-2(1H)-yl)ethaneone] as the compound, how does the IC50 [1] read?
**A.** 41.1 nM

**Q.** And the IC50 [2]?
**A.** 0.6 nM

**Q.** What about the IC50 [3] of the same compound?
**A.** 35 nM

**Q.** Which results are given for `Cc1cccc(C)c1Nc1nn(C)c2nc(Nc3ccc4c(c3)CNCC4)ncc12` [Example 2, N^3-(2,6-dimethylphenyl)-1-methyl-N^6-(1,2,3,4-tetrahydroisoquinoline-7-yl)-1H-pyrazolo[3,4-d]pyrimidine-3,6-diamine]?
**A.** IC50 [1]: 30.1 nM; IC50 [3]: 7.7 nM

**Q.** Which IC50 [1] does the source give for `COc1cc2c(cc1Nc1ncc3c(Nc4c(C)cccc4C)nn(C)c3n1)CCNC2` [Example 4, N^1-(2,6-dimethylphenyl)-N^6-(7-methoxy-1,2,3,4-tetrahydroisoquinoline-6-yl)-1-methyl-1H-pyrazolo[3,4-d]pyrimidine-3,6-diamine] here?
**A.** 572 nM

**Q.** And the IC50 [2]?
**A.** 100 nM

**Q.** And the IC50 [3]?
**A.** 209 nM

**Q.** For `Cc1cccc(C)c1Nc1nn(C)c2nc(Nc3ccc4c(c3)CCN(C(=O)C(F)(F)F)C4)ncc12` [Example 6, 1-(6-(3-(2,6-dimethylphenylamino)-1-methyl-1H-pyrazolo[3,4-d]pyrimidine-6-ylamino)-3,4-dihydroisoquinoline-2(1H)-yl)-2,2,2-trifluoroethaneone], which IC50 [1] is on record?
**A.** 159 nM

**Q.** What about the IC50 [2] of the same compound?
**A.** 10 nM

**Q.** What about the IC50 [3] of the same compound?
**A.** 113 nM

**Q.** What does the source list for `Cc1cccc(C)c1Nc1nn(C)c2nc(Nc3ccc4c(c3)CCNC4)ncc12` [Example 7, N^3-(2,6-dimethylphenyl)-1-methyl-N^6-(1,2,3,4-tetrahydroisoquinoline-6-yl)-1H-pyrazolo[3,4-d]pyrimidine-3,6-diamine]?
**A.** IC50 [1]: 46 nM; IC50 [2]: 0.8 nM; IC50 [3]: 20 nM

**Q.** `CC(=O)N1CCc2cc(Nc3ncc4c(Nc5c(C)cccc5C)nn(C)c4n3)ccc2C1` [Example 8, 1-(6-(3-(2,6-dimethylphenylamino)-1-methyl-1H-pyrazolo[3,4-d]pyrimidine-6-ylamino)-3,4-dihydroisoquinoline-2(1H)-yl)ethaneone] was tested. Which IC50 [1] did it give?
**A.** 93 nM

**Q.** And the IC50 [2]?
**A.** 1 nM

**Q.** What about the IC50 [3] of the same compound?
**A.** 4.8 nM

**Q.** Which IC50 [3] does the source give for `Cn1nc(Nc2ccccc2)c2cnc(Nc3ccc4c(c3)CNCC4)nc21` [Example 10, 1-methyl-N^3-phenyl-N^6-(1,2,3,4-tetrahydroisoquinoline-7-yl)-1H-pyrazolo[3,4-d]pyrimidine-3,6-diamine] here?
**A.** 202 nM

**Q.** What does the source list for `Cn1nc(Nc2c(Cl)cccc2Cl)c2cnc(Nc3ccc4c(c3)CNCC4)nc21` [Example 12, N^3-(2,6-dichlorophenyl)-1-methyl-N^6 (1,2,3,4-tetrahydroisoquinoline-7-yl)-1H-pyrazolo[3,4-d]pyrimidine-3,6-diamine]?
**A.** IC50 [1]: 89 nM; IC50 [2]: 3.75 nM; IC50 [3]: 2.6 nM

**Q.** `CC(=O)N1CCc2ccc(Nc3ncc4c(Nc5c(Cl)cccc5Cl)nn(C)c4n3)cc2C1` [Example 13, 1-(7-(3-(2,6-dichlorophenylamino)-1-methyl-1H-pyrazolo[3,4-d]pyrimidine-6-ylamino)-3,4-dihydroisoquinoline-2(1H)-yl)ethaneone] was tested. Which IC50 [1] did it give?
**A.** 118 nM

**Q.** What about the IC50 [2] of the same compound?
**A.** 3 nM

**Q.** What about the IC50 [3] of the same compound?
**A.** 5.5 nM

**Q.** `C=CC(=O)N1CCc2ccc(Nc3ncc4c(Nc5c(C)cccc5C)nn(C)c4n3)cc2C1` [Example 14, 1-(7-(3-(2,6-dimethylphenylamino)-1-methyl-1H-pyrazolo[3,4-d]pyrimidine-6-ylamino)-3,4-dihydroisoquinoline-2(1H)-yl)prop-2-en-1-one] was tested. Which IC50 [1] did it give?
**A.** 32 nM

**Q.** And the IC50 [2]?
**A.** 2 nM

**Q.** What about the IC50 [3] of the same compound?
**A.** 31 nM

**Q.** What does the source list for `Cn1nc(Nc2c(Cl)cccc2Cl)c2cnc(Nc3ccc4c(c3)CCNC4)nc21` [Example 15, N^3-(2,6-dichlorophenyl)-1-methyl-N^6-(1,2,3,4-tetrahydroisoquinoline-6-yl)-1H-pyrazolo[3,4-d]pyrimidine-3,6-diamine]?
**A.** IC50 [1]: 41 nM; IC50 [3]: 1.3 nM

**Q.** How did the IC50 [1] turn out when `CC(=O)N1CCc2cc(Nc3ncc4c(Nc5c(Cl)cccc5Cl)nn(C)c4n3)ccc2C1` [Example 16, 1-(6-(3-(2,6-dichlorophenylamino)-1-methyl-1H-pyrazolo[3,4-d]pyrimidine-6-ylamino)-3,4-dihydroisoquinoline-2(1H)-yl)ethaneone] was run?
**A.** 61 nM

**Q.** What about the IC50 [2] of the same compound?
**A.** 3 nM

**Q.** What about the IC50 [3] of the same compound?
**A.** 3.2 nM

**Q.** What does the source list for `Cc1ccc(NC(=O)c2cccc(C(F)(F)F)c2)cc1Nc1nn(C)c2nc(Nc3ccc4c(c3)C(C)N(C)CC4)ncc12` (stereo not drawn) [Example 64, N-(3-((6-((1,2-dimethyl-1,2,3,4-tetrahydroisoquinolin-7-yl)amino)-1-methyl-1H-pyrazolo[3,4-d]pyrimidine-3-yl)amino)-4-methylphenyl)-3-(trifluoromethyl)benzamide]?
**A.** IC50 [1]: 10.1 nM; IC50 [2]: 5.22 nM

**Q.** For `Cc1cccc(C)c1Nc1nn(C)c2nc(Nc3ccc4c(c3)C(C(C)C)N(C)CC4)ncc12` (stereo not drawn) [Example 65, N3-(2,6-dimethylphenyl)-N 6-(1-isopropyl-2-methyl-1,2,3,4-tetrahydroisoquinoline-7-yl)-1-methyl-1H-pyrazolo[3,4-d]pyrimidine-3,6-diamine], which IC50 [1] is on record?
**A.** 274 nM

**Q.** What about the IC50 [2] of the same compound?
**A.** 7.74 nM
